{"source": "patent US6646006B2", "about": "“Enhancement of vascular function by modulation of endogenous nitric oxide production or activity” (The Board of Trustees of the Leland Stanford Junior …, priority 1993, dated 2003)", "key": {"monocytes": {"test_system": "monocytes", "assay": "Functional binding assay: rabbit blood mononuclear cells to bEnd3 endothelial cells", "format": "in vivo", "conditions": "Arg vs vehicle-treated Chol animals", "description": "To determine if oral arginine supplementation affects monocyte adherence, blood was collected from rabbits fed normal chow (=6) a 1% cholesterol diet (=6), or a 1% cholesterol diet supplemented with L-arginine (=6), as described above. Mononuclear cells were purified from blood by Ficoll-paque density gradient centrifugation. In these preliminary studies, adhesion was examined of blood leukocytes to a transformed endothelial cell line, bEnd3 (mouse brain-derived polyoma middle T antigen transformed endothelial cells). The Bend3 cells display the morphology of endothelial cells, and like human endothelial cells are capable of uptake of acetylated low-density lipoprotein and express adhesion molecules in a cytokine-regulatable fashion. Cultured cells were grown to confluence in 0.5 cm^2 Lab-Tek chamber slides (MilesScientific) and treated with control medium or with LPS (1 mg/ml) or TNFα (25 U/ml) for 18 hours. Cultures were washed with fresh assay buffer, and low, medium, or high concentrations of leukocytes (0.75, 1.5, or 3×10^5 cells/ml, respectively) were added per well. Following a 30-minute incubation on a rocking platform at room temperature to allow binding, the slides were inverted and immersed in buffer containing 2% (v/v) glutaraldehyde, such that non-adherent cells were lost and adherent cells were fixed to the monolayer. […]"}, "[1]": {"test_system": "hypercholesterolemic rabbits", "assay": "Regression of pre-existing atherosclerosis in hypercholesterolemic rabbits", "format": "in vivo, rabbit", "conditions": "for Lesion surface area of thoracic aortae: all arginine treated animals weeks 14-23 vs vehicle", "description": "This is clinically important if arginine is to be useful in the treatment of pre-existing atherosclerosis in humans. Accordingly, New Zealand white rabbits (n=85) received normal chow or 0.5% cholesterol chow for 10 weeks. Subsequently, half of the hypercholesterolemic rabbits were given 2.25% (W/V) L-arginine in their drinking water. Thoracic aortae were harvested at weeks 10, 14, 18, or 23. Rings of aorta were used to assess NO-dependent vasodilation to acetylcholine (ACh). Maximal relaxation to ACh in the hypercholesterolemic rabbits receiving vehicle (CHOL) became progressively attenuated from 53.4% (at week 10) to 17.4% (by week 23). […] By contrast, hypercholesterolemic animals receiving arginine (ARG) manifested improved endothelium-dependent relaxation associated with a reduction of plaque area at 14 and 18 weeks."}, "human monocytes": {"test_system": "human monocytes", "assay": "Ex vivo binding of human monocytes to bEnd3 endothelial cells after oral L-arginine", "format": "in vivo", "method": "The control subject population in this study included 12 normal volunteers, (10 males and 2 females), with an average age of 37±2 yrs. Normalcy was determined by a careful history, physical examination, and laboratory analysis to exclude individuals with hematologic, renal, or hepatic dysfunction or clinically evident atherosclerosis. There were 20 patients (10 males and 10 females) with hypercholesterolemia as defined by a total plasma cholesterol greater than 240 mg/dl and a LDL cholesterol level greater than 160 mg/dl. […] None of the subjects were taking diuretics, vasoactive medications, antiplatelet or hypolipidemic medications. This study was approved by the Stanford University Administrative Panel on Human Subjects in Medical Research and each subject gave written informed consent before entry into the study. Blood was drawn from each subject in the postabsorptive state.\nWe isolated human monocytes from citrated venous blood. The blood was centrifuged and the buffy coat removed and resuspended with HBSS. The suspension was then carefully layered onto a cushion of 1.068-d Histopaque, and centrifuged. After centrifugation, the monocytes were aspirated.\nWe used the transformed endothelial cell (EC) line, bEnd3 to examine monocyte-endothelial binding ex vivo. The bEnd3 cells express endothelial adhesion molecules and bind monocytes in a cytokine-inducible fashion with kinetics similar to those observed with human umbilical vein endothelium. Monocytes were added to the wells containing the endothelial monolayers to reach a final cell number of 3×10^6/ml. In some studies, monocytes were exposed in vitro for 30 minutes to sodium nitroprusside (an NO donor) prior to the binding assay.\nThe six-well plates were transferred to a rocking platform and rocked for 30 minutes at room temperature. After 30 minutes, the cell suspension was aspirated from each well and wells were then rinsed with binding buffer to remove nonadherent monocytes. Videomicroscopic counting of adherent cells was performed using a computer aided image analysis system.\nTo confirm this effect of L-arginine treatment and to control for any experimental bias, a double-blinded, placebo-controlled, randomized study was performed. Ten hypercholesterolemic subjects were randomized (1:2) to placebo or L-arginine treatment; 6 normocholesterolemic individuals were studied in parallel to control for variation over time in the binding assay. At baseline, the adhesion of monocytes from both hypercholesterolemic groups was increased in comparison to the normocholesterolemic individuals (p<0.001). After 2 weeks of L-arginine administration, there was an absolute reduction of 53% in monocyte binding (n=7, p<0.005, baseline vs 2 weeks) (FIG. 11). By contrast, there was no significant change in the adhesiveness of monocytes isolated from hypercholesterolemic individuals treated with placebo."}, "[2]": {"test_system": "hypercholesterolemic rabbits", "assay": "Balloon angioplasty of the iliac artery in hypercholesterolemic rabbits, oral arginine", "format": "in vivo, rabbit", "description": "Methods. Twenty-eight New Zealand white rabbits were randomized into one of three dietary groups and received either normal rabbit chow, 0.5% cholesterol diet, or 0.5% cholesterol diet plus L-arginine hydrochloride (2.25% W/V) in the drinking water. After six weeks of dietary intervention, left iliac artery of each animal was subjected to a balloon angioplasty. Four weeks later, the iliac arteries were harvested for vascular reactivity studies and immunohistochemistry."}, "[3]": {"test_system": "forearm resistance vessels", "assay": "Forearm blood flow response to methacholine (plethysmography) after intravenous L-arginine", "format": "in vivo, human", "description": "The control subject population in this study included 11 normal volunteers comprising (10 males and 1 female). Their ages ranged from 31 to 49 and averaged 39±2 yr. There were 14 patients with hypercholesterolemia. Hypercholesterolemia was defined as a serum LDL cholesterol level greater than the 75th percentile adjusted for age and sex. These individuals included 11 males and 3 females whose ages ranged from 22 to 48 and averaged 38±2 years.\nUnder local anesthesia and sterile conditions, a polyethylene catheter was inserted into a brachial artery of each subject for determination of blood pressure and for infusion of drugs. A separate polyethylene catheter was inserted into the antecubital vein for infusion of L-arginine. Bilateral forearm blood flow was determined by venous occlusion strain gauge plethysmography, using calibrated mercury-in-silastic strain gauges, and expressed as ml/100 ml tissue per min.\nTo assess NO-dependent vasodilation, methacholine chloride (which induces the endothelium to release NO) was administered via the brachial artery. Forearm blood flow was measured during infusion of methacholine chloride at concentrations of 0.3, 3, and 10 μg/min each for 3 min.\nAfter completion of the methacholine chloride infusions, all normal subjects and 10 individuals with hypercholesterolemia were given L-arginine intravenously over 30 minutes and then the methacholine infusions were repeated. D-arginine, the enantiomer of L-arginine, is not a precursor of NO. Thus, to ensure that any observed effects of L-arginine were due to its contribution to the synthesis of NO and not just secondary to its physiochemical properties, five individuals with hypercholesterolemia received D-arginine intravenously."}, "[4]": {"conditions": "two weeks after discontinuation of L-arginine"}}, "note": "“Also recorded” adds a separate entry of the source."}
{"smiles": "N=C(N)NCCC[C@H](N)C(=O)O", "note": "[L-arginine]", "values": [{"measurement": "adherence of monocytes to bEnd3 cells", "setting": "monocytes", "value": "much less adherent"}, {"measurement": "plaque area of total surface of thoracic aorta", "setting": "[1]; 23 weeks, 3 of 7 ARG animals with persistent improvement", "value": 5.4, "unit": "%"}, {"measurement": "generation of vascular NO", "setting": "[1]; ARG animals", "value": "increased generation"}, {"measurement": "generation of vascular superoxide anion", "setting": "[1]; ARG animals", "value": "reduced generation"}, {"measurement": "plaque area", "setting": "[1]; ARG animals at 14 and 18 weeks", "value": "reduction"}, {"measurement": "endothelium-dependent relaxation", "setting": "[1]; ARG animals, 14 and 18 weeks", "value": "improved"}, {"measurement": "Lesion surface area of thoracic aortae", "setting": "[1]", "value": "significantly reduced"}, {"measurement": "Lesion surface area of thoracic aortae", "setting": "[1]; listed as arginine", "value": "reduced"}, {"measurement": "adhesiveness of monocytes compared with normal subjects", "setting": "human monocytes; after 2 weeks of arginine treatment", "value": "no different from those of the normal subjects"}, {"measurement": "absolute reduction in monocyte binding", "setting": "human monocytes; double-blinded placebo-controlled, baseline vs 2 weeks, n=7", "value": 53, "unit": "%"}, {"measurement": "decrease in monocyte adhesiveness", "setting": "human monocytes; open-label, 3 individuals, 2 weeks", "value": 38, "unit": "%"}, {"measurement": "increase in binding vs that after 2 weeks of L-arginine therapy", "setting": "human monocytes; [4]", "value": "30±9", "unit": "%"}, {"measurement": "increase in bound cells/hpf vs normocholesterolemic individuals", "setting": "human monocytes; [4]", "value": "34±9", "unit": "%"}, {"measurement": "intimal thickening in injured vessels", "setting": "[2]; four weeks after balloon angioplasty", "value": "reduced"}, {"measurement": "accumulation of macrophages in the lesion", "setting": "[2]; four weeks after balloon injury, ARG vs CHOL", "value": "substantially inhibited; also recorded: significantly reduced"}, {"measurement": "endothelium-derived NO activity (bioassay)", "setting": "[2]; iliac artery, hypercholesterolemic animals", "value": "partially restored"}, {"measurement": "augmentation of the vasodilation to methacholine chloride", "setting": "[3]; hypercholesterolemic subjects, intravenous over 30 minutes", "value": 25, "unit": "%"}, {"measurement": "complications or side-effects of the infusions", "setting": "[3]; intravenous", "value": "no complications or side-effects"}, {"measurement": "vasodilation during methacholine chloride", "setting": "[3]; normal subjects, intravenous over 30 minutes", "value": "did not potentiate"}]}
